# Reference: PubChem BioAssay AID1963836 (Molecular Pharmacology Branch, DTP, NCI, 2024)
# Where “and” joins values, the source holds several entries; their conditions need not be identical. Equal entries are not always repeated.
# Tested on: 857933-349-R-J2-PDC complex spheroid viability
# Assay: Anticancer human tumor 857933-349-R-J2-PDC patient-derived colon adenocarcinoma cell line growth inhibition [POLQ]
# Conditions: for viability, T/C: stronger effect = lower value
# Experimental: Multicellular complex tumor spheroid response to Polymerase (POL) inhibitors (novobiocin, ART-558, RP6685) in combination with a variety of drugs and investigational agents in selected tumor cell lines
# The POL inhibitors (novobiocin, ART-558, and RP6685) were evaluated both individually and in combination with standard of care and investigational anticancer small molecules within a complex spheroid model of solid tumors. . Complex spheroids include a stromal component modeled by human endothelial cells (HUVEC) and fibroblasts modeled by human mesenchymal stem cells (MSCs). The concentration ranges selected for each drug and investigational agent were based upon clinically achievable concentrations if the clinical Cmax of the agent was known.
# Compounds. The drugs and investigational agents: novobiocin (NSC847541), ART-558 (NSC835418), RP-6685 (NSC848927), peposertib (NSC802822), ceralasertib (NSC780249), elimusertib (NSC800525), camonsertib (NSC841442), AZD-1390 (NSC803789), olaparib (NSC753686), talazoparib (NSC767125), rucaparib (NSC756644), sotorasib (NSC818433), MRTX-1133 (NSC836407), SN-38 (NSC673596), topotecan (NSC609699), epotoside (NSC141540), doxorubicin (NSC123127), gemcitabine (NSC613327), 5-fluorouracil (NSC19893), paclitaxel (NSC125973), vemurafenib (NSC761431), MSA-2 (NSC828583), SN-011 (NSC837082), adavosertib (NSC754352), prexasertib (NSC758257), carboplatin (NSC241240) and oxaliplatin (NSC266046), were obtained from the National Cancer Institute (NCI) Developmental Therapeutics Program Chemical Repository (21). The FDA-approved anticancer drug set is available from the Developmental Therapeutics Program at https://dtp.cancer.gov/organization/dscb/obtaining/. […] The stock solutions were prepared in dimethyl sulfoxide (DMSO, Sigma-Aldrich, St. Louis, MO, cat. D2650), except for the platinum compounds which were prepared in saline (Quality Biological, Gaithersburg, MD, cat. 114-055-101), at 800-fold the tested concentration and stored at -70 degrees C prior to their use. All drugs and investigational agents were tested over a range starting from a high concentration at or near the clinical Cmax and decreasing in half-log increments. If the clinical Cmax for an agent had not been determined, the highest concentration tested was 10 microM, except for SN-38, which was tested at a high concentration of 1 microM.
# Cell Culture. All cells were maintained in an incubator at 37 degrees C and 5% CO2 with 95% humidity. The PDC lines were cultured according to standard operating procedures established by the NCI PDMR (https://pdmr.cancer.gov). Table 3 of the manuscript, lists the cell lines along with the number of the three cell types plated to form the mct-spheroids and media for tumor cell growth. After thawing, all PDC lines, except 997537-175-T-J1-PDC and 415267-285-R-J2-PDC, were cultured in Matrigel-coated flasks prepared with a working solution of 1X Ham's F-12 nutrient mix, without supplementation (Thermo Fisher Scientific, cat. 11765054), 100 U/mL penicillin-streptomycin (Thermo Fisher Scientific, cat. 15140122), and 2.5% Matrigel (Corning Inc., Corning, NY, cat. 354248) for the first three passages. The two PDC lines 997537-175-T-J1-PDC and 415267-285-R-J2-PDC were cultured on uncoated flasks. The 857933-349-R-J2-PDC line was cultured in 6C/Colon 1B media containing advanced DMEM/F-12 (Thermo Fisher Scientific, cat. 12634028), 10 mM HEPES (Thermo Fisher Scientific, cat. 15630080), 1X GlutaMAX supplement (Thermo Fisher Scientific, cat. 35050061), 0.1 mg/mL primocin (InvivoGen, San Diego, CA, cat. ant-pm-2), 10% defined fetal bovine serum, heat inactivated (HyClone Laboratories Inc., Logan, UT, cat. SH30070.03HI), 50% L-WRN conditioned media (ATCC, cat. CRL-3276), 1.25 mM N-Acetyl-L-cysteine (Sigma-Aldrich, cat. A9165), 10 mM nicotinamide (Sigma-Aldrich, cat. N0636), 1X B-27 supplement (Thermo Fisher Scientific, cat. 17504044), 1X N-2 supplement (Thermo Fisher Scientific, cat. […]
# 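Also: spheroids exposed to compounds for seven days before readout.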
smiles,measurement,setting,value
COc1cccc(OCCCN)c1-c1cc(Nc2cnc(C#N)cn2)n[nH]1,"viability, T/C",compound 0.00316 µM,91.5% and 95.9% and 86.6%
same,"viability, T/C",compound 0.01 µM,87.6% and 84.2% and 97.2%
same,"viability, T/C",compound 0.0316 µM,74.3% and 98.6% and 80.6%
same,"viability, T/C",compound 0.1 µM,51.2% and 62.8% and 75.9%
same,"viability, T/C",compound 0.316 µM,53.3% and 60.6% and 53.7%
same,"viability, T/C",compound 1 µM,38.1% and 53.8% and 48.8%
same,IC50,curve of compound,189 nM and > 1000 nM and 731 nM
CCc1c2c(nc3ccc(O)cc13)-c1cc3c(c(=O)n1C2)COC(=O)[C@]3(O)CC,"viability, T/C",compound 0.00316 µM,76.9% and 53.6% and 65.9%
same,"viability, T/C",compound 0.01 µM,60.1% and 67.4% and 65.8%
same,"viability, T/C",compound 0.0316 µM,35.1% and 21.3% and 31.4%
same,"viability, T/C",compound 0.1 µM,22.3% and 16.2% and 23.3%
same,"viability, T/C",compound 0.316 µM,17.8% and 10.6% and 15.8%
same,"viability, T/C",compound 1 µM,4.53% and 2.45% and 5.61%
same,IC50,curve of compound,15.6 nM and 13.6 nM and 16.5 nM
CCCS(=O)(=O)Nc1ccc(F)c(C(=O)c2c[nH]c3ncc(-c4ccc(Cl)cc4)cc23)c1F,"viability, T/C",compound 0.0316 µM,87.2% and 97.5% and 76%
same,"viability, T/C",compound 0.1 µM,91% and 92.8% and 98.1%
same,"viability, T/C",compound 0.316 µM,80.8% and 102% and 99.7%
same,"viability, T/C",compound 1 µM,82.6% and 101% and 102%
same,"viability, T/C",compound 3.16 µM,97.3% and 93.2% and 86%
same,"viability, T/C",compound 10 µM,32.9% and 13.3% and 13.9%
same,IC50,curve of compound,6990 nM and 5900 nM and 5640 nM
O=c1[nH]cc(F)c(=O)[nH]1,"viability, T/C",compound 0.0316 µM,98.7% and 89.7% and 53.3%
same,"viability, T/C",compound 0.1 µM,89.1% and 112% and 86.9%
same,"viability, T/C",compound 0.316 µM,114% and 97.8% and 96%
same,"viability, T/C",compound 1 µM,72.6% and 81.3% and 59.4%
same,"viability, T/C",compound 3.16 µM,45.8% and 37.1% and 40.2%
same,"viability, T/C",compound 10 µM,28.3% and 24.9% and 21.5%
same,IC50,curve of compound,2380 nM and 2250 nM and 1890 nM
CC(=O)O[C@H]1C(=O)[C@@]2(C)[C@H]([C@H](OC(=O)c3ccccc3)[C@]3(O)C[C@H](OC(=O)[C@H](O)[C@@H](NC(=O)c4ccccc4)c4ccccc4)C(C)=C1C3(C)C)[C@]1(OC(C)=O)CO[C@@H]1C[C@@H]2O,"viability, T/C",compound 0.00949 µM,40.3% and 50.5% and 65.1%
same,"viability, T/C",compound 0.03 µM,15.2% and 21.8% and 27.1%
same,"viability, T/C",compound 0.0949 µM,9.46% and 11.5% and 16.2%
same,"viability, T/C",compound 0.3 µM,12.5% and 11.3% and 21.3%
same,"viability, T/C",compound 0.949 µM,11.2% and 14.4% and 17%
same,"viability, T/C",compound 3 µM,12.1% and 16.1% and 21.9%
same,IC50,curve of compound,< 9.49 nM and 9.59 nM and 15 nM
C=CC(=O)N1CCN(c2nc(=O)n(-c3c(C)ccnc3C(C)C)c3nc(-c4c(O)cccc4F)c(F)cc23)C(C)C1 (configuration not stated) + COC1C(OC(N)=O)C(O)C(Oc2ccc3c(O)c(NC(=O)c4ccc(O)c(CC=C(C)C)c4)c(=O)oc3c2C)OC1(C)C,IC50,"curve of first compound, second compound 0.0316 µM",> 10000 nM
same,IC50,"curve of first compound, second compound 0.1 µM",> 10000 nM
same,IC50,"curve of first compound, second compound 0.316 µM",> 10000 nM
same,IC50,"curve of first compound, second compound 1 µM",> 10000 nM
same,IC50,"curve of first compound, second compound 3.16 µM",> 10000 nM
same,IC50,"curve of first compound, second compound 10 µM",> 10000 nM
same,"viability, T/C","second compound 0.0316 µM, first compound 0.0316 µM",105%
same,"viability, T/C","second compound 0.0316 µM, first compound 0.1 µM",104%
same,"viability, T/C","second compound 0.0316 µM, first compound 0.316 µM",103%
same,"viability, T/C","second compound 0.0316 µM, first compound 1 µM",107%
same,"viability, T/C","second compound 0.0316 µM, first compound 3.16 µM",88.5%
same,"viability, T/C","second compound 0.0316 µM, first compound 10 µM",102%
same,"viability, T/C","second compound 0.1 µM, first compound 0.0316 µM",94.4%
same,"viability, T/C","second compound 0.1 µM, first compound 0.1 µM",88.7%
same,"viability, T/C","second compound 0.1 µM, first compound 0.316 µM",79.5%
same,"viability, T/C","second compound 0.1 µM, first compound 1 µM",110%
same,"viability, T/C","second compound 0.1 µM, first compound 3.16 µM",104%
same,"viability, T/C","second compound 0.1 µM, first compound 10 µM",77%
same,"viability, T/C","second compound 0.316 µM, first compound 0.0316 µM",96.1%
same,"viability, T/C","second compound 0.316 µM, first compound 0.1 µM",110%
same,"viability, T/C","second compound 0.316 µM, first compound 0.316 µM",102%
same,"viability, T/C","second compound 0.316 µM, first compound 1 µM",98.2%
same,"viability, T/C","second compound 0.316 µM, first compound 3.16 µM",100%
same,"viability, T/C","second compound 0.316 µM, first compound 10 µM",74.9%
same,"viability, T/C","second compound 1 µM, first compound 0.0316 µM",101%
same,"viability, T/C","second compound 1 µM, first compound 0.1 µM",108%
same,"viability, T/C","second compound 1 µM, first compound 0.316 µM",81.3%
same,"viability, T/C","second compound 1 µM, first compound 1 µM",109%
same,"viability, T/C","second compound 1 µM, first compound 3.16 µM",99.2%
same,"viability, T/C","second compound 1 µM, first compound 10 µM",93.3%
same,"viability, T/C","second compound 3.16 µM, first compound 0.0316 µM",98.1%
same,"viability, T/C","second compound 3.16 µM, first compound 0.1 µM",116%
same,"viability, T/C","second compound 3.16 µM, first compound 0.316 µM",126%
same,"viability, T/C","second compound 3.16 µM, first compound 1 µM",99.3%
same,"viability, T/C","second compound 3.16 µM, first compound 3.16 µM",111%
same,"viability, T/C","second compound 3.16 µM, first compound 10 µM",71.4%
same,"viability, T/C","second compound 10 µM, first compound 0.0316 µM",104%
same,"viability, T/C","second compound 10 µM, first compound 0.1 µM",73%
same,"viability, T/C","second compound 10 µM, first compound 0.316 µM",118%
same,"viability, T/C","second compound 10 µM, first compound 1 µM",97.4%
same,"viability, T/C","second compound 10 µM, first compound 3.16 µM",82.2%
same,"viability, T/C","second compound 10 µM, first compound 10 µM",99.8%
